Data published in PubChem BioAssay (NCI).
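Dose response: 5 concentrations. Exposure: 48 h. Format: 96-well plates. Endpoint: linear interpolation; highest concentration if not reached. TGI denotes the concentration required for complete inhibition of growth.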

Columns and labels:
Test in all cases: NCI-60 cell line screen, 48 h
[1] = system: NCI-H23 lung
[2] = system: UACC-257 melanoma
[3] = system: MDA-MB-435
[4] = system: SK-MEL-2 melanoma
[5] = system: HCC-2998 colon
[6] = system: LOX IMVI melanoma
[7] = system: CCRF-CEM leukemia
[8] = system: OVCAR-8 ovarian
[9] = system: KM12 colon
[10] = system: KM20L2 colon
[11] = system: K-562 leukemia
[12] = system: NCI-H226 lung
[13] = system: HS 578T breast
[14] = system: LXFL 529 NSCLC
[15] = system: NCI/ADR-RES ovarian
[16] = system: M19-MEL melanoma
[17] = system: HL-60(TB) leukemia
[18] = system: MOLT-4 leukemia
[19] = system: MDA-MB-231 breast
[20] = system: SNB-75 CNS
[21] = system: RXF 393 renal
[22] = system: HCT-15 colon
[23] = system: SK-MEL-28 melanoma
[24] = system: SN12C renal
[25] = system: BT-549 breast
[26] = system: HT29 colon
[27] = system: U251 CNS
[28] = system: SNB-19 CNS
[29] = system: UACC-62 melanoma
[30] = system: DU-145 prostate
[31] = system: HCT-116 colon
[32] = system: MALME-3M melanoma
[33] = system: RXF-631 renal
[34] = system: PC-3 prostate
[35] = system: SR leukemia
[36] = system: NCI-H460 lung
[37] = system: SNB-78 CNS
[38] = system: IGROV1 ovarian
[39] = system: SF-268 CNS
[40] = system: MDA-N
[41] = system: DMS 114 small cell lung
[42] = system: EKVX NSCLC
[43] = system: MCF7 breast
[44] = system: OVCAR-5 ovarian
[45] = system: SW-620 colon
[46] = system: DMS 273 small cell lung
[47] = system: SF-295 CNS
[48] = system: XF 498 CNS
[49] = system: NCI-H522 lung
[50] = system: 786-0 renal
[51] = system: HOP-62 NSCLC
[52] = system: M14 melanoma
[53] = system: OVCAR-3 ovarian
[54] = system: RPMI-8226 leukemia
[55] = system: TK-10 renal
[56] = system: SK-OV-3 ovarian
[57] = system: A549 NSCLC
[58] = system: DLD-1 colon
[59] = system: COLO 205 colon
[60] = system: UO-31 renal
[61] = system: T-47D breast
[62] = system: SK-MEL-5 melanoma
[63] = system: ACHN renal
[64] = system: SF-539 CNS
[65] = system: OVCAR-4 ovarian
[66] = system: CAKI-1 renal
[67] = system: A498 renal
[68] = system: HOP-92 NSCLC

O=[As]O
TGI [1]: > 100 µM | TGI [2]: > 93.3 µM | TGI [3]: > 100 µM | TGI [4]: > 100 µM | TGI [5]: > 100 µM | TGI [6]: 96.9 µM | TGI [7]: > 66.8 µM | TGI [8]: > 70.1 µM | TGI [9]: > 100 µM | TGI [10]: > 100 µM | TGI [11]: > 89.5 µM | TGI [12]: > 100 µM | TGI [13]: > 100 µM | TGI [14]: > 100 µM | TGI [15]: > 100 µM | TGI [16]: 63.6 µM | TGI [17]: 18.5 µM | TGI [18]: > 100 µM | TGI [19]: > 100 µM | TGI [20]: 97.2 µM | TGI [21]: > 93.5 µM | TGI [22]: > 100 µM | TGI [23]: > 100 µM | TGI [24]: > 95.1 µM | TGI [25]: > 100 µM | TGI [26]: > 100 µM | TGI [27]: > 52.8 µM | TGI [28]: > 100 µM | TGI [29]: > 59.3 µM | TGI [30]: > 100 µM | TGI [31]: > 100 µM | TGI [32]: > 59.9 µM | TGI [33]: 22.5 µM | TGI [34]: > 100 µM | TGI [35]: > 71.5 µM | TGI [36]: > 100 µM | TGI [37]: > 100 µM | TGI [38]: > 60.4 µM | TGI [39]: > 74.4 µM | TGI [40]: > 100 µM | TGI [41]: 40.3 µM | TGI [42]: > 100 µM | TGI [43]: > 100 µM | TGI [44]: > 100 µM | TGI [45]: > 100 µM | TGI [46]: > 100 µM | TGI [47]: > 100 µM | TGI [48]: 36.8 µM | TGI [49]: > 60.5 µM | TGI [50]: > 100 µM | TGI [51]: > 100 µM | TGI [52]: > 96.1 µM | TGI [53]: > 74.1 µM | TGI [54]: > 100 µM | TGI [55]: > 100 µM | TGI [56]: > 100 µM | TGI [57]: > 100 µM | TGI [58]: > 100 µM | TGI [59]: > 100 µM | TGI [60]: > 100 µM | TGI [61]: > 100 µM | TGI [62]: > 61.8 µM | TGI [63]: > 100 µM | TGI [64]: > 54.3 µM | TGI [65]: > 100 µM | TGI [66]: > 100 µM | TGI [67]: > 100 µM | TGI [68]: > 91.5 µM
